Results from publication PMC2923838 (Chemical research in toxicology, 2009).

Target: D-amino acid oxidase (DAAO) (Sus scrofa, UniProt P00371)
Test: […] benzoate with porcine DAAO and D-Trp in […] cells
Type: cell-based
Settings: read-out: % attenuation at 20 mM

Chain of D-amino acid oxidase (DAAO) (P00371 whole entry): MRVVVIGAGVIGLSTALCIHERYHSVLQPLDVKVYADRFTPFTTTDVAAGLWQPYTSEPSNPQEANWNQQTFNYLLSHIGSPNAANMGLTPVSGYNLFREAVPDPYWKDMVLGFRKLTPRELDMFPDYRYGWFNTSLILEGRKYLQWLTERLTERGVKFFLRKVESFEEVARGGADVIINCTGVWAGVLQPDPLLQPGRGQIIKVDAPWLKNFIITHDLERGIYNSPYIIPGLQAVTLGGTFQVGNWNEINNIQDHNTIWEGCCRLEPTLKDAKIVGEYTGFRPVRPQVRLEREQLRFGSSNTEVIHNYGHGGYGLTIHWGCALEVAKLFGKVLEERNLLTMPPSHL

`O=C(O)c1ccccc1` [sodium benzoate] was tested, and the inhibition at 20000 µM was 76%.
